Experimental data as given in patent US9409966B2, “Glucagon-like peptide-1 derivatives and their pharmaceutical use” (priority 2007, dated 2016).
*1 amine or outer side, *2 acyl side, *3 side chain or, on linkers, in order; H or OH if unused. Where a SMILES comes first, the peptide text is derived from it. Side-chain parts run from the residue outwards. [ ]: non-standard residue; d: D form. The star is where a group is joined. C18 diacid = O=C(O)CCCCCCCCCCCCCCCCC(=O)*; γGlu = O=C(O)[C@H](CCC(=O)[*:2])N[*:1]; Palmitoyl = CCCCCCCCCCCCCCCC(=O)*; AEEA = NCCOCCOCC(=O)O; Aib = CC(C)(N)C(=O)O

What was measured:
human GLP-1 receptor = target: T1, human GLP-1 receptor (Homo sapiens, UniProt P43220); test: Stimulation of cAMP formation in a cell line expressing the cloned human GLP-1 receptor; assay type: biochemical; settings: cAMP production, purified plasma membranes from BHK467-12A (tk-ts13), AlphaScreen cAMP Assay Kit; read-out: Potency [EC50/nM]
T1 construct: expressed in transfected cells; host or cells: BHK467-12A (tk-ts13) baby hamster kidney cells; purified plasma membranes
T1 sequence (P43220 24-463): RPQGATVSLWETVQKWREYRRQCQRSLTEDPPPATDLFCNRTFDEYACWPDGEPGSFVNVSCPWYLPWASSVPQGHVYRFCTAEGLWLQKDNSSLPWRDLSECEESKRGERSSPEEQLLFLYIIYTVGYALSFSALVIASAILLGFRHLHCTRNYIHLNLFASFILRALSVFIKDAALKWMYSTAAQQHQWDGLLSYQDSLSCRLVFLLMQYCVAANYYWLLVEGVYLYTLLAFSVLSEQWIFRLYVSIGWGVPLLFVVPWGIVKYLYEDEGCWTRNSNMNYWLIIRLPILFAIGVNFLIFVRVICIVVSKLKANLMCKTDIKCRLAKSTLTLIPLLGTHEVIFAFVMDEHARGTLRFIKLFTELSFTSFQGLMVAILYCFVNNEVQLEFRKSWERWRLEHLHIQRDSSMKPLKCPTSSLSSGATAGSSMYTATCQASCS

[1] = target: human serum albumin (HSA) (Homo sapiens, UniProt P02768); test: Albumin binding affinity, competition scintillation proximity assay (SPA)
Chain of human serum albumin (HSA) (P02768 25-609): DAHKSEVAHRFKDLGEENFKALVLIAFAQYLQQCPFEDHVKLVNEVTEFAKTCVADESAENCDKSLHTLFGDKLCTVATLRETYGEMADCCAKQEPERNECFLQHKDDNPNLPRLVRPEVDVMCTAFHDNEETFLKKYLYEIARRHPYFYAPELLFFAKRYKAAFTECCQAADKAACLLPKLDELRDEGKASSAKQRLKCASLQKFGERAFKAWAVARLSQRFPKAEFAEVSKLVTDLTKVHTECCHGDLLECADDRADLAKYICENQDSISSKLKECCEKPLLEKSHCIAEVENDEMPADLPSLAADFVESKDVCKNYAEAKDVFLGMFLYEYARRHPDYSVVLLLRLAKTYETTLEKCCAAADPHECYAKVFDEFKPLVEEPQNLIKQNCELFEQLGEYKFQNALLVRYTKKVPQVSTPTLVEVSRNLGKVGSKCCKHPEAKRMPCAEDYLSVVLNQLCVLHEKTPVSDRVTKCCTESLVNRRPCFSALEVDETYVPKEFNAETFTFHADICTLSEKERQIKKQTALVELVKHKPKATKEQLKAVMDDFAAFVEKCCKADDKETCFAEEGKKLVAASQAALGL
Procedure: Streptavidin-SPA beads (GE Healthcare RPNQ0009) were incubated with biotinylated HSA for 5 hours. The beads were washed with buffer to remove unbound HSA. […] After 20 hours of gentle rocking at room temperature the plates were centrifuged and counted on a TopCounter.

Compound | EC50 (human GLP-1 receptor) [nM] | EC50 [1] [nM]
CC[C@H](C)[C@H](NC(=O)[C@H](Cc1ccccc1)NC(=O)[C@H](CCC(=O)O)NC(=O)[C@H](CCCNC(=N)N)NC(=O)[C@H](C)NC(=O)[C@H](C)NC(=O)[C@H](CCC(N)=O)NC(=O)[C@H](CCC(=O)O)NC(=O)[C@H](CCC(=O)O)NC(=O)[C@H](CC(C)C)NC(=O)[C@H](Cc1ccc(O)cc1)NC(=O)[C@H](CO)NC(=O)[C@H](CO)NC(=O)[C@@H](NC(=O)[C@H](CC(=O)O)NC(=O)[C@H](CO)NC(=O)[C@@H](NC(=O)[C@H](Cc1ccccc1)NC(=O)[C@@H](NC(=O)CNC(=O)[C@H](CCC(=O)O)NC(=O)[C@H](C)NC(=O)CCc1c[nH]cn1)[C@@H](C)O)[C@@H](C)O)C(C)C)C(=O)N[C@@H](C)C(=O)N[C@@H](Cc1c[nH]c2ccccc12)C(=O)N[C@@H](CC(C)C)C(=O)N[C@H](C(=O)N[C@@H](CCCNC(=N)N)C(=O)NCC(=O)N[C@@H](CCCNC(=N)N)C(=O)N[C@@H](CCCCNC(=O)CCCS(=O)(=O)NC(=O)CCCCCCCCCCCCCCCc1nnn[nH]1)C(N)=O)C(C)C [Example 21, N-epsilon37-[4-(16-(1H-Tetrazol-5-yl)hexadecanoylsulfamoyl)butyryl][DesaminoHis7,Glu22,Arg26,Arg34,Lys37]GLP-1-(7-37)amide] | 1.27 | > 2000
CC[C@H](C)[C@H](NC(=O)[C@H](Cc1ccccc1)NC(=O)[C@H](CCC(=O)O)NC(=O)[C@H](CCCNC(=N)N)NC(=O)[C@H](C)NC(=O)[C@H](C)NC(=O)[C@H](CCC(N)=O)NC(=O)[C@H](CCC(=O)O)NC(=O)[C@H](CCC(=O)O)NC(=O)[C@H](CC(C)C)NC(=O)[C@H](Cc1ccc(O)cc1)NC(=O)[C@H](CO)NC(=O)[C@H](CO)NC(=O)[C@@H](NC(=O)[C@H](CC(=O)O)NC(=O)[C@H](CO)NC(=O)[C@@H](NC(=O)[C@H](Cc1ccccc1)NC(=O)[C@@H](NC(=O)CNC(=O)[C@H](CCC(=O)O)NC(=O)[C@H](C)NC(=O)CCc1c[nH]cn1)[C@@H](C)O)[C@@H](C)O)C(C)C)C(=O)N[C@@H](C)C(=O)N[C@@H](Cc1c[nH]c2ccccc12)C(=O)N[C@@H](CC(C)C)C(=O)N[C@H](C(=O)N[C@@H](CCCNC(=N)N)C(=O)NCC(=O)N[C@@H](CCCNC(=N)N)C(=O)N[C@@H](CCCCNC(=O)COCCOCCNC(=O)COCCOCCNC(=O)CC[C@H](NC(=O)CCCCCCCCCCCCCCCCCCC(=O)O)C(=O)O)C(=O)O)C(C)C [Example 22, N-epsilon37-[2-(2-{2-[2-(2-{2-[(S)-4-Carboxy-4-(19-carboxynonadecanoylamino)butyrylamino]ethoxy}ethoxy)acetylamino]ethoxy}ethoxy)acetyl][DesaminoHis7,Glu22,Arg26,Arg34,Lys37]GLP-1-(7-37)] | 1.35 | 400 to 800
CCCCCCCCCCCCCCCC(=O)N[C@@H](CCC(=O)NCCOCCOCC(=O)NCCOCCOCC(=O)NCCCC[C@H](NC(=O)[C@H](Cc1ccc(O)cc1)NC(=O)[C@H](CO)NC(=O)[C@H](CO)NC(=O)[C@@H](NC(=O)[C@H](CC(=O)O)NC(=O)[C@H](CO)NC(=O)[C@@H](NC(=O)[C@H](Cc1ccccc1)NC(=O)[C@@H](NC(=O)CNC(=O)[C@H](CCC(=O)O)NC(=O)C(C)(C)NC(=O)[C@@H](N)Cc1c[nH]cn1)[C@@H](C)O)[C@@H](C)O)C(C)C)C(=O)N[C@@H](CCC(=O)O)C(=O)N[C@@H](CCC(=O)O)C(=O)N[C@@H](CCC(N)=O)C(=O)N[C@@H](C)C(=O)N[C@@H](C)C(=O)N[C@@H](CCCNC(=N)N)C(=O)N[C@@H](CCC(=O)O)C(=O)N[C@@H](Cc1ccccc1)C(=O)N[C@H](C(=O)N[C@@H](CCC(=O)O)C(=O)N[C@@H](Cc1c[nH]c2ccccc12)C(=O)N[C@@H](CC(C)C)C(=O)N[C@H](C(=O)N[C@@H](CCCCN)C(=O)NCC(=O)N[C@@H](CCCNC(=N)N)C(=O)N1CCC[C@H]1C(N)=O)C(C)C)[C@@H](C)CC)C(=O)O [Example 24, N-epsilon20-(2-{2-[2-(2-{2-[2-((S)-4-Carboxy-4-hexadecanoylamino-butyrylamino)ethoxy]ethoxy}acetylamino)ethoxy]ethoxy}-acetyl)[Aib8,Lys20,Glu22,Arg26,Glu30,Pro37]GLP-1-(7-37)amide] (H-H[Aib]EGTFTSDVSSYK([AEEA-AEEA-γGlu-Palmitoyl])EEQAAREFIEWLVKGRP-NH2) | 0.01 | 1500 to 2000

Continued by falling EC50 (human GLP-1 receptor), values first:

EC50 (human GLP-1 receptor) [nM] | EC50 [1] [nM] | Compound
0.02 | > 2000 | CCCCCCCCCCCCCCCC(=O)N[C@@H](CCC(=O)NCCOCCOCC(=O)NCCOCCOCC(=O)NCCCC[C@H](NC(=O)[C@H](CCCNC(=N)N)NC(=O)CNC(=O)[C@H](CCCNC(=N)N)NC(=O)[C@@H](NC(=O)[C@H](CC(C)C)NC(=O)[C@H](Cc1c[nH]c2ccccc12)NC(=O)[C@H](C)NC(=O)[C@@H](NC(=O)[C@H](Cc1ccccc1)NC(=O)[C@H](CCC(=O)O)NC(=O)[C@H](CCCNC(=N)N)NC(=O)[C@H](C)NC(=O)[C@H](C)NC(=O)[C@H](CCC(N)=O)NC(=O)[C@H](CCC(=O)O)NC(=O)[C@H](CCC(=O)O)NC(=O)[C@H](CC(C)C)NC(=O)[C@H](Cc1ccc(O)cc1)NC(=O)[C@H](CO)NC(=O)[C@H](CO)NC(=O)[C@@H](NC(=O)[C@H](CC(=O)O)NC(=O)[C@H](CO)NC(=O)[C@@H](NC(=O)[C@H](Cc1ccccc1)NC(=O)[C@@H](NC(=O)CNC(=O)[C@H](CCC(=O)O)NC(=O)[C@H](C)NC(=O)CCc1c[nH]cn1)[C@@H](C)O)[C@@H](C)O)C(C)C)[C@@H](C)CC)C(C)C)C(N)=O)C(=O)O [Example 18, N-epsilon37-{2-(2-(2-(2-[2-(2-(4-(hexadecanoylamino)-4-carboxybutyrylamino)ethoxy)ethoxy]acetyl)ethoxy)ethoxy)acetyl)}-[desaminoHis7,Glu22, Arg26,Arg34,Lys 37] (GLP-1-(7-37)amide]
0.02 | 1500 to 2000 | CC[C@H](C)[C@H](NC(=O)[C@H](Cc1ccccc1)NC(=O)[C@H](CCC(=O)O)NC(=O)[C@H](CCCNC(=N)N)NC(=O)[C@H](C)NC(=O)[C@H](C)NC(=O)[C@H](CCC(N)=O)NC(=O)[C@H](CCC(=O)O)NC(=O)[C@H](CCC(=O)O)NC(=O)[C@H](CC(C)C)NC(=O)[C@H](Cc1ccc(O)cc1)NC(=O)[C@H](CO)NC(=O)[C@H](CO)NC(=O)[C@@H](NC(=O)[C@H](CC(=O)O)NC(=O)[C@H](CO)NC(=O)[C@@H](NC(=O)[C@H](Cc1ccccc1)NC(=O)[C@@H](NC(=O)CNC(=O)[C@H](CCC(=O)O)NC(=O)C(C)(C)NC(=O)[C@@H](N)Cc1c[nH]cn1)[C@@H](C)O)[C@@H](C)O)C(C)C)C(=O)N[C@@H](C)C(=O)N[C@@H](CCCCNC(=O)COCCOCCNC(=O)COCCOCCNC(=O)CC[C@H](NC(=O)CCCCCCCCCCCCCCCCC(=O)O)C(=O)O)C(=O)N[C@@H](CC(C)C)C(=O)N[C@H](C(=O)N[C@@H](CCCCN)C(=O)NCC(=O)N[C@@H](CCCNC(=N)N)C(=O)NCC(=O)O)C(C)C [Example 23, N-epsilon31-[2-(2-{2-[2-(2-{2-[4-Carboxy-4-(17-carboxy-heptadecanoylamino)butyrylamino]ethoxy}ethoxy)acetylamino]ethoxy}ethoxy)acetyl][Aib8,Glu22,Arg26,Lys31]GLP-1-(7-37)] (H-H[Aib]EGTFTSDVSSYLEEQAAREFIAK([AEEA-AEEA-γGlu-C18 diacid])LVKGRG-OH)
